From PMC6644896 (ACS Omega, 2018)

Columns and labels:
[1] = target: T1, human DNA topoisomerase I (Homo sapiens, UniProt P11387); experiment: DNA relaxation assay, agarose gel; type: biochemical
T1 sequence (P11387 2-765): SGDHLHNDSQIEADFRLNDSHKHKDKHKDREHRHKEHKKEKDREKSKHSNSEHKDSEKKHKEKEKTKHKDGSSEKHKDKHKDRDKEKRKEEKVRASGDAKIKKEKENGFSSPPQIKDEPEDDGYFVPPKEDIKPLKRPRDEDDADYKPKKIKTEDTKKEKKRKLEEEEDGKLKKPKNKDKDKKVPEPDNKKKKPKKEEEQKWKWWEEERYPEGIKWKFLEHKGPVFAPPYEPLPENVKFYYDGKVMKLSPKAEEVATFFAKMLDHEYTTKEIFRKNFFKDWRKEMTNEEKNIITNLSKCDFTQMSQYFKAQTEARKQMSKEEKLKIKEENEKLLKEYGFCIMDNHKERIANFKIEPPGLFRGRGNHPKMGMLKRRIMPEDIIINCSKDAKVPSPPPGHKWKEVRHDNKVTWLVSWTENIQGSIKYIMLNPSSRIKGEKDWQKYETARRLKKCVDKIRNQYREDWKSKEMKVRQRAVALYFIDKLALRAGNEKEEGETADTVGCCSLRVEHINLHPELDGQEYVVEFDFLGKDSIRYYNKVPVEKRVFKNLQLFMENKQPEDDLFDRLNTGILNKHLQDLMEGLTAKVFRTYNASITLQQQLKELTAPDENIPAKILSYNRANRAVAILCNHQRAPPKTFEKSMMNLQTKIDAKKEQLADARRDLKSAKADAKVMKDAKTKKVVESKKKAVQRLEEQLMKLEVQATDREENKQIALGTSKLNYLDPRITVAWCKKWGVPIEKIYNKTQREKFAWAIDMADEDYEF

[2] = target: human DNA topoisomerase II alpha (Homo sapiens, UniProt P11388); experiment: DNA relaxation assay, agarose gel; type: biochemical
Sequence of human DNA topoisomerase II alpha (P11388 whole entry): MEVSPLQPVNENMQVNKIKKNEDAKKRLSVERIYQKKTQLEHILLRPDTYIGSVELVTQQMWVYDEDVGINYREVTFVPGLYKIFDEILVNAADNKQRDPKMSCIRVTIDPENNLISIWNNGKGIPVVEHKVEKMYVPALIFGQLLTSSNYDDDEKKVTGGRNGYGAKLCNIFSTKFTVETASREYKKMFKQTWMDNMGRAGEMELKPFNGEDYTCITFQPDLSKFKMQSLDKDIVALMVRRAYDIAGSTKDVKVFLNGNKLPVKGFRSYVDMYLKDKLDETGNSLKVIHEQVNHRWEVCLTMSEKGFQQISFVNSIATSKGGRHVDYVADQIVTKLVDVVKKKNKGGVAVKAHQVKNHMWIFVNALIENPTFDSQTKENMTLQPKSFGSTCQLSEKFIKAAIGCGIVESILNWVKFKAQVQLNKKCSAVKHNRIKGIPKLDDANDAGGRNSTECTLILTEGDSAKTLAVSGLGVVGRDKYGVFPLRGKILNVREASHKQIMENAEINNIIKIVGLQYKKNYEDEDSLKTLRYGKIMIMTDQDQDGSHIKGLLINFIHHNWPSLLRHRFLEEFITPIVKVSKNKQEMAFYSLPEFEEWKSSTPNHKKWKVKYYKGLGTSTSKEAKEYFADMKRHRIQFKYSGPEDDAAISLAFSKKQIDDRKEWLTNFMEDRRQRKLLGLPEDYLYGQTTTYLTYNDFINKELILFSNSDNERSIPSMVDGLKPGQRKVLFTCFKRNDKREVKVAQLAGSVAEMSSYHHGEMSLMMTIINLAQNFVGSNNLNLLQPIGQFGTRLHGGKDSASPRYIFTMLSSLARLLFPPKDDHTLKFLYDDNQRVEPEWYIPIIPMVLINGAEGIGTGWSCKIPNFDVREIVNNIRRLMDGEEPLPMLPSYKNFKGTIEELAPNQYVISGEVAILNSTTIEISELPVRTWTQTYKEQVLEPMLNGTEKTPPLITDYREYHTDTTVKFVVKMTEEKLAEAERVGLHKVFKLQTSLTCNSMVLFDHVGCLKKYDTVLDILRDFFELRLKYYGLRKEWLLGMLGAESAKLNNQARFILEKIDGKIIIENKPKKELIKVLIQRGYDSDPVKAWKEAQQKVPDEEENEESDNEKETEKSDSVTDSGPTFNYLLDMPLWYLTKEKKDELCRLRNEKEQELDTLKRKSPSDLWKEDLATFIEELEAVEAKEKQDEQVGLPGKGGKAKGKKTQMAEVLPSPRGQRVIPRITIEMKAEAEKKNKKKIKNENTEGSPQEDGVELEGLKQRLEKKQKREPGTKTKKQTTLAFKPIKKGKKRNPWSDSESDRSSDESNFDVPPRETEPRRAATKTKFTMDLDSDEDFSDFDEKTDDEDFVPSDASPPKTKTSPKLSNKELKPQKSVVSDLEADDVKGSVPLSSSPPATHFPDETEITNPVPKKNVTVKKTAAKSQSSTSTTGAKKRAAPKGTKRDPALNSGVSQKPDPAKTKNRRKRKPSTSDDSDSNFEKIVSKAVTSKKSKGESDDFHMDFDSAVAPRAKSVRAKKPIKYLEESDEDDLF

SMILES | DNA relaxation assay, agarose gel (5 and 10 μM) [1] | DNA relaxation assay, agarose gel (5 and 10 μM) [2]
CC[C@@]1(O)C(=O)OCc2c1cc1n(c2=O)Cc2cc3ccccc3nc2-1 [CPT, camptothecin] | CPT (a control for topoisomerase I inhibition) and DOX (a control for topoisomerase II inhibition) at two different concentrations | 
COc1cccc2c1C(=O)c1c(O)c3c(c(O)c1C2=O)C[C@@](O)(C(=O)CO)C[C@@H]3O[C@H]1C[C@H](N)[C@H](O)[C@H](C)O1 [DOX, doxorubicin] |  | These showed no DNA migration, indicating complete inhibition of the respective topoisomerase enzymes.
